In patent publication US12077503B2, “Substituted cyclic amides and their use as herbicides” (FMC CORPORATION, priority 2015, dated 2024):

How the values were obtained:
Format in all cases: in vivo
Kochia (Kochia scoparia) [1] = assay: Test A preemergence; conditions: for Plant response rating, Kochia: 125 g ai/ha; for Kochia plant response rating (0 to 100 scale, 0 is no effect, 100 is complete control): 500 g ai/ha, visual injury approx. 10 d
Summary of the method: (§1)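 In a loam soil and sand blend, planted seeds got a preemergence directed soil spray, and young plants at the one- to two-leaf stage, 2–10 cm high, got a postemergence application; ~10 d greenhouse hold; injury rated visually, 0 = none, 100 = complete control.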

[2] = tested on: barnyardgrass (Echinochloa crus-galli); assay: Test A preemergence; conditions: for Plant response rating, Barnyardgrass: 125 g ai/ha; for Barnyardgrass plant response rating (0 to 100 scale, 0 is no effect, 100 is complete control): 500 g ai/ha, visual injury approx. 10 d
Summary of the method: as §1

[3] = tested on: giant foxtail (Setaria faberii); assay: Test A preemergence; conditions: for Plant response rating, Foxtail, Giant: 125 g ai/ha; for Foxtail, Giant plant response rating (0 to 100 scale, 0 is no effect, 100 is complete control): 500 g ai/ha, visual injury approx. 10 d
Summary of the method: as §1

[4] = tested on: pigweed (Amaranthus retroflexus); assay: Test A preemergence; conditions: for Plant response rating, Pigweed: 125 g ai/ha; for Pigweed plant response rating (0 to 100 scale, 0 is no effect, 100 is complete control): 500 g ai/ha, visual injury approx. 10 d
[5] = tested on: ragweed (common ragweed, Ambrosia elatior); assay: Test A preemergence; conditions: for Plant response rating, Ragweed: 125 g ai/ha; for Ragweed plant response rating (0 to 100 scale, 0 is no effect, 100 is complete control): 500 g ai/ha, visual injury approx. 10 d
Summary of the method: as §1

[6] = tested on: ryegrass, Italian (Italian ryegrass, Lolium multiflorum); assay: Test A preemergence; conditions: for Plant response rating, Ryegrass, Italian: 125 g ai/ha; for Ryegrass, Italian plant response rating (0 to 100 scale, 0 is no effect, 100 is complete control): 500 g ai/ha, visual injury approx. 10 d
Summary of the method: as §1

[7] = tested on: Galium (catchweed bedstraw, Galium aparine); assay: Test A postemergence
Summary of the method: as §1

Kochia (Kochia scoparia) [8] = assay: Test A postemergence
Summary of the method: as §1

[9] = tested on: barnyardgrass (Echinochloa crus-galli); assay: Test A postemergence
Summary of the method: as §1

[10] = tested on: blackgrass (Alopecurus myosuroides); assay: Test A postemergence
Summary of the method: as §1

corn (Zea mays) = assay: Test A postemergence
Summary of the method: as §1

[11] = tested on: giant foxtail (Setaria faberii); assay: Test A postemergence
Summary of the method: as §1

[12] = tested on: pigweed (Amaranthus retroflexus); assay: Test A postemergence
Summary of the method: as §1

[13] = tested on: ragweed (common ragweed, Ambrosia elatior); assay: Test A postemergence
Summary of the method: as §1

[14] = tested on: ryegrass, Italian (Italian ryegrass, Lolium multiflorum); assay: Test A postemergence
Summary of the method: as §1

[15] = tested on: wheat (Triticum aestivum); assay: Test A postemergence
Summary of the method: as §1

[16] = tested on: barnyardgrass (Echinochloa crus-galli); assay: Test B flooded paddy test; conditions: Flood, 250 g ai/ha; 0 to 100 scale where 0 is no effect and 100 is complete control; 13 to 15 d
Summary of the method: (§2)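 Greenhouse paddy pots with 2-leaf stage plants received compound by direct addition to floodwater 3 cm deep, kept at that level. Scored visually at 13–15 d versus controls (0 no effect; 100 complete control).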

[17] = tested on: ducksalad (Heteranthera limosa); assay: Test B flooded paddy test; conditions: Flood, 250 g ai/ha; 0 to 100 scale where 0 is no effect and 100 is complete control; 13 to 15 d
Summary of the method: as §2

rice (Oryra sativa) = assay: Test B flooded paddy test; conditions: Flood, 250 g ai/ha; 0 to 100 scale where 0 is no effect and 100 is complete control; 13 to 15 d
Summary of the method: as §2

[18] = tested on: sedge, umbrella (small-flower umbrella sedge, Cyperus difformis); assay: Test B flooded paddy test; conditions: Flood, 250 g ai/ha; 0 to 100 scale where 0 is no effect and 100 is complete control; 13 to 15 d
Summary of the method: as §2

[19] = Preemergence, visual injury after approximately 10 d, 0 to 100 scale where 0 is no effect and 100 is complete control
[20] = 125 g ai/ha, postemergence, visual rating after approx. 10 d, 0 to 100 scale (0 no effect, 100 complete control)
[21] = Postemergence, 500 g ai/ha, 0 to 100 scale where 0 is no effect and 100 is complete control
[22] = preemergence, 0 to 100 scale (0 no effect, 100 complete control)
[23] = 125 g ai/ha, postemergence, visual injury rating on 0 to 100 scale (0 no effect, 100 complete control), approx. 10 d
[24] = 500 g ai/ha, postemergence, 0 to 100 scale, 0 no effect, 100 complete control

O=C1NCC(c2cccc(C(F)(F)F)c2F)C1C(=O)Nc1ccc(F)cc1F (stereo not drawn) [Compound 592]
0: Plant response rating, Kochia (Kochia (Kochia scoparia) [1]; [19]) | Plant response rating, Pigweed [4, 19] | Pigweed plant response rating (0 to 100 scale, 0 is no effect, 100 is complete control) ([4]; Preemergence) | Plant response rating, Ragweed [5, 19] | Plant response rating, Ryegrass, Italian [6, 19] | Plant response rating, Kochia (Kochia (Kochia scoparia) [8]; [20]) | Plant response rating, Pigweed [12, 20] | Plant response rating, Pigweed [12, 21] | Plant response rating, Ragweed [13, 20] | Plant response rating, Ragweed [13, 21] | Plant response rating, Ryegrass, Italian [14, 20] | Plant response rating, Ryegrass, Italian [14, 21] | Plant response rating, Rice (rice (Oryra sativa)) | Plant response rating, Sedge, Umbrella [18]
30: Kochia plant response rating (0 to 100 scale, 0 is no effect, 100 is complete control) (Kochia (Kochia scoparia) [1]; Preemergence) | Plant response rating, Galium [7, 21] | Plant response rating, Blackgrass [10, 20] | Plant response rating, Wheat [15, 20]
90: Plant response rating, Barnyardgrass [2, 19] | Barnyardgrass plant response rating (0 to 100 scale, 0 is no effect, 100 is complete control) ([2]; Preemergence) | Plant response rating, Foxtail, Giant [3, 19] | Foxtail, Giant plant response rating (0 to 100 scale, 0 is no effect, 100 is complete control) ([3]; Preemergence) | Plant response rating, Barnyardgrass [9, 21] | Plant response rating, Foxtail, Giant [11, 21]
70: Plant response rating, Corn (corn (Zea mays); [21]) | Plant response rating, Wheat [15, 21]
50: Ryegrass, Italian plant response rating (0 to 100 scale, 0 is no effect, 100 is complete control) ([6]; Preemergence) | Plant response rating, Corn (corn (Zea mays); [20])
40: Plant response rating, Kochia (Kochia (Kochia scoparia) [8]; [21])
80: Plant response rating, Barnyardgrass [9, 20] | Plant response rating, Foxtail, Giant [11, 20] | Plant response rating, Ducksalad [17]
60: Plant response rating, Blackgrass [10, 21]
55: Plant response rating, Barnyardgrass [16]
20: Ragweed plant response rating (0 to 100 scale, 0 is no effect, 100 is complete control) ([5]; Preemergence) | Plant response rating, Galium [7, 20]

CN1CC(c2ccc3c(c2)OC(F)(F)O3)C(C(=O)Nc2ccccc2S(C)(=O)=O)C1=O (stereo not drawn) [Compound 443]
0: Plant response rating, Rice (rice (Oryra sativa)) | Plant response rating, Sedge, Umbrella [18]
60: Blackgrass plant response rating [10, 23] | Plant response rating, Ryegrass, Italian [14, 24] | Plant response rating, Wheat [15, 24]
80: Kochia plant response rating (0 to 100 scale, 0 is no effect, 100 is complete control) (Kochia (Kochia scoparia) [1]; Preemergence) | Plant response rating, Pigweed [4, 22] | Plant response rating, Ragweed [5, 22] | Ragweed plant response rating (0 to 100 scale, 0 is no effect, 100 is complete control) ([5]; Preemergence) | Barnyardgrass plant response rating [9, 23] | Plant response rating, Barnyardgrass [9, 24] | Plant response rating, Corn (corn (Zea mays); [24]) | Foxtail, Giant plant response rating [11, 23] | Plant response rating, Foxtail, Giant [11, 24] | Plant response rating, Ducksalad [17]
50: Ryegrass, Italian plant response rating (0 to 100 scale, 0 is no effect, 100 is complete control) ([6]; Preemergence) | Plant response rating, Galium [7, 24] | Plant response rating, Pigweed [12, 24]
70: Plant response rating, Blackgrass [10, 24] | Plant response rating, Barnyardgrass [16]
30: Plant response rating, Kochia (Kochia (Kochia scoparia) [1]; [22]) | Plant response rating, Kochia (Kochia (Kochia scoparia) [8]; [24]) | Ryegrass, Italian plant response rating [14, 23]
90: Plant response rating, Barnyardgrass [2, 22] | Barnyardgrass plant response rating (0 to 100 scale, 0 is no effect, 100 is complete control) ([2]; Preemergence) | Plant response rating, Foxtail, Giant [3, 22] | Foxtail, Giant plant response rating (0 to 100 scale, 0 is no effect, 100 is complete control) ([3]; Preemergence) | Pigweed plant response rating (0 to 100 scale, 0 is no effect, 100 is complete control) ([4]; Preemergence)
40: Plant response rating, Ryegrass, Italian [6, 22] | Galium plant response rating [7, 23] | Corn plant response rating (corn (Zea mays); [23]) | Wheat plant response rating [15, 23]
20: Kochia plant response rating (Kochia (Kochia scoparia) [8]; [23]) | Pigweed plant response rating [12, 23] | Ragweed plant response rating [13, 23] | Plant response rating, Ragweed [13, 24]
